# PubChem BioAssay (NCI)
#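 Where inhibition never reached the appropriate level, the endpoint shown equals the highest concentration tested. Otherwise, values were interpolated linearly from a five-concentration, 48-hour dose response in 96-well plates. Abbreviation: GI50, concentration required for 50% inhibition of growth. At the TGI there is no net growth.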
# Legend:
# Assay in all cases: DTP human tumour cell line panel, 48 h
# [1] = system: 786-0 renal
# [2] = system: A498 renal
# [3] = system: A549 NSCLC
# [4] = system: ACHN renal
# [5] = system: BT-549 breast
# [6] = system: CAKI-1 renal
# [7] = system: CCRF-CEM leukemia
# [8] = system: COLO 205 colon
# [9] = system: DU-145 prostate
# [10] = system: EKVX NSCLC
# [11] = system: HCC-2998 colon
# [12] = system: HCT-116 colon
# [13] = system: HCT-15 colon
# [14] = system: HL-60(TB) leukemia
# [15] = system: HOP-62 NSCLC
# [16] = system: HOP-92 NSCLC
# [17] = system: HS 578T breast
# [18] = system: HT29 colon
# [19] = system: IGROV1 ovarian
# [20] = system: K-562 leukemia
# [21] = system: KM12 colon
# [22] = system: LOX IMVI melanoma
# [23] = system: M14 melanoma
# [24] = system: MALME-3M melanoma
# [25] = system: MCF7 breast
# [26] = system: MDA-MB-231 breast
# [27] = system: MDA-MB-435
# [28] = system: MOLT-4 leukemia
# [29] = system: NCI-H226 lung
# [30] = system: NCI-H23 lung
# [31] = system: NCI-H460 lung
# [32] = system: NCI-H522 lung
# [33] = system: NCI/ADR-RES ovarian
# [34] = system: OVCAR-3 ovarian
# [35] = system: OVCAR-4 ovarian
# [36] = system: OVCAR-5 ovarian
# [37] = system: OVCAR-8 ovarian
# [38] = system: PC-3 prostate
# [39] = system: RPMI-8226 leukemia
# [40] = system: RXF 393 renal
# [41] = system: SF-268 CNS
# [42] = system: SF-295 CNS
# [43] = system: SF-539 CNS
# [44] = system: SK-MEL-2 melanoma
# [45] = system: SK-MEL-28 melanoma
# [46] = system: SK-MEL-5 melanoma
# [47] = system: SK-OV-3 ovarian
# [48] = system: SN12C renal
# [49] = system: SNB-19 CNS
# [50] = system: SNB-75 CNS
# [51] = system: SR leukemia
# [52] = system: SW-620 colon
# [53] = system: T-47D breast
# [54] = system: TK-10 renal
# [55] = system: U251 CNS
# [56] = system: UACC-257 melanoma
# [57] = system: UACC-62 melanoma
# [58] = system: UO-31 renal
structure (smiles),measurement,setting,value
O=C(Nc1ccc([As]=[As]c2ccc(NC(=O)c3ccccc3)cc2)cc1)c1ccccc1 (stereo unspecified),GI50,[1],454 nM
same,TGI,[1],1670 nM
same,GI50,[2],1150 nM
same,TGI,[2],2360 nM
same,GI50,[3],1840 nM
same,TGI,[3],3590 nM
same,GI50,[4],1190 nM
same,TGI,[4],2450 nM
same,GI50,[5],343 nM
same,TGI,[5],1190 nM
same,GI50,[6],582 nM
same,TGI,[6],1890 nM
same,GI50,[7],136 nM
same,TGI,[7],428 nM
same,GI50,[8],239 nM
same,TGI,[8],769 nM
same,GI50,[9],1440 nM
same,TGI,[9],2750 nM
same,GI50,[10],1180 nM
same,TGI,[10],2640 nM
same,GI50,[11],1240 nM
same,TGI,[11],2500 nM
same,GI50,[12],234 nM
same,TGI,[12],624 nM
same,GI50,[13],302 nM
same,TGI,[13],1360 nM
same,GI50,[14],328 nM
same,TGI,[14],2090 nM
same,GI50,[15],1240 nM
same,TGI,[15],2640 nM
same,GI50,[16],179 nM
same,TGI,[16],642 nM
same,GI50,[17],478 nM
same,TGI,[17],6320 nM
same,GI50,[18],1420 nM
same,TGI,[18],3440 nM
same,GI50,[19],756 nM
same,TGI,[19],2250 nM
same,GI50,[20],215 nM
same,TGI,[20],560 nM
same,GI50,[21],1690 nM
same,TGI,[21],3120 nM
same,GI50,[22],262 nM
same,TGI,[22],786 nM
same,GI50,[23],1130 nM
same,TGI,[23],2490 nM
same,GI50,[24],184 nM
same,TGI,[24],571 nM
same,GI50,[25],208 nM
same,TGI,[25],547 nM
same,GI50,[26],323 nM
same,TGI,[26],1330 nM
same,GI50,[27],734 nM
same,TGI,[27],2110 nM
same,GI50,[28],339 nM
same,TGI,[28],1840 nM
same,GI50,[29],662 nM
same,TGI,[29],1640 nM
same,GI50,[30],391 nM
same,TGI,[30],1480 nM
same,GI50,[31],2030 nM
same,TGI,[31],4510 nM
same,GI50,[32],74.3 nM
same,TGI,[32],217 nM
same,GI50,[33],1320 nM
same,TGI,[33],2650 nM
same,GI50,[34],285 nM
same,TGI,[34],812 nM
same,GI50,[35],466 nM
same,TGI,[35],1810 nM
same,GI50,[36],1170 nM
same,TGI,[36],2530 nM
same,GI50,[37],333 nM
same,TGI,[37],1220 nM
same,GI50,[38],1180 nM
same,TGI,[38],2460 nM
same,GI50,[39],247 nM
same,TGI,[39],728 nM
same,GI50,[40],192 nM
same,TGI,[40],499 nM
same,GI50,[41],424 nM
same,TGI,[41],1590 nM
same,GI50,[42],1510 nM
same,TGI,[42],3080 nM
same,GI50,[43],381 nM
same,TGI,[43],1530 nM
same,GI50,[44],334 nM
same,TGI,[44],1010 nM
same,GI50,[45],214 nM
same,TGI,[45],531 nM
same,GI50,[46],846 nM
same,TGI,[46],2100 nM
same,GI50,[47],1900 nM
same,TGI,[47],3310 nM
same,GI50,[48],679 nM
same,TGI,[48],1980 nM
same,GI50,[49],1470 nM
same,TGI,[49],2840 nM
same,GI50,[50],242 nM
same,TGI,[50],1510 nM
same,GI50,[51],258 nM
same,TGI,[51],751 nM
same,GI50,[52],227 nM
same,TGI,[52],740 nM
same,GI50,[53],173 nM
same,TGI,[53],493 nM
same,GI50,[54],329 nM
same,TGI,[54],1130 nM
same,GI50,[55],255 nM
same,TGI,[55],716 nM
same,GI50,[56],244 nM
same,TGI,[56],1010 nM
same,GI50,[57],313 nM
same,TGI,[57],1280 nM
same,GI50,[58],975 nM
same,TGI,[58],2250 nM
